This is an account of results in patent publication US20150274639A1, “METHODS OF USE FOR COMPOSITIONS COMPRISING A BIOCIDAL POLYAMINE” (Curza Global, LLC, priority 2013, published 2015).

Where “and” joins values, the source holds several entries; their conditions need not be identical. Identical values can stand only once.

The MIC is the lowest concentration that inhibits growth of the organism. A low value points to greater potency.

Series [1] relates to Pseudomonas aeruginosa ATCC 27853. Nature of the series: Zones of inhibition on cation adjusted Mueller Hinton agar (Example 2). It counts as cell-based. The settings on record: 50 μL drop on P. aeruginosa lawn, 37° C., 24 hours. As for the experimental part: (§1) A compound was screened for its ability to create zones of inhibition on cation adjusted Mueller Hinton agar. It is believed that the compound of Example 2 may be represented by the structure disclosed in FIG. 4H. To perform this test, lawns of methicillin-resistant Staphylococcus aureus (MRSA) or Pseudomonas aeruginosa ATCC 27853 were made on cation adjusted Mueller Hinton agar using standard microbiological techniques. Immediately after plating bacteria on agar, a 50 μL drop of the compound was placed onto the agar surface. The compound was tested in duplicate at 100 μg/mL, 50 μg/mL, 25 μg/mL and 10 μg/mL. All plates were incubated at 37° C. for 24 hours.

Series [2] concerns P. aeruginosa ATCC 27853 biofilm. The series is described as follows: EBEC on PEEK membranes, 100% eradication (Example 2). It is filed as cell-based, Pseudomonas aeruginosa. The settings on record: PEEK membrane, eradicate all detectable amounts (100%), listed as PBC-51. As for the experimental part:
(§2) The fourth test that was performed was the effective biofilm eradication concentration (EBEC). To determine the EBEC, biofilms of MRSA and P. aeruginosa ATCC 27853 were grown on the surface of PEEK membranes using a previously established protocol. Briefly, 500 mL of brain heart infusion (BHI) broth were inoculated with 10^5 cells/mL of MRSA or P. aeruginosa. BHI broth was placed into a membrane biofilm reactor and placed on a hot plate set at 34° C. for 24 hours with a stir bar rotating at 130 rpm. Following the initial 24-hour growth period, a 10% BHI broth solution was flowed through the reactor at a rate of 6.944 mL/min for another 24 hours. After 48 hours of growth, each PEEK membrane had biofilm growth on it. In this experiment, there were ˜2×10^11 cells of MRSA per PEEK membrane and −2×10^10 cells of P. aeruginosa per PEEK membrane. The EBEC was defined as the concentration of the compound that was required to eradicate all detectable amounts (100%) of bacteria within the biofilms.

The test system of series [3] is MRSA. Nature of the series: Zones of inhibition on cation adjusted Mueller Hinton agar (Example 2). The settings on record: 50 μL drop on MRSA lawn, 37° C., 24 hours. It is filed as cell-based, methicillin-resistant Staphylococcus aureus. Here is the method: as §1
The subject of series [4] is biofilms of MRSA and P. aeruginosa. The series is described as follows: Visual observation of biofilm dispersal from PEEK membranes. It counts as cell-based. The settings on record: 300, 200 and 100 μg/mL. Here is the method: Initial tests based on visual observation were performed to determine the ability of the compound to disperse biofilms. This was done by observing the biofilms of MRSA and P. aeruginosa that had grown on the surface of PEEK membranes after they had been placed in three separate concentrations of the compound (300 μg/mL, 200 μg/mL and 100 μg/mL). Biofilms were observed every 30 minutes to see if they separated from the PEEK membrane.

Series [5] deals with Columbia blood agar. The series is described as follows: Hemolytic nature on Columbia blood agar. It is filed as cell-based. As to conditions: 100 μg/mL, 50 μg/mL and 25 μg/mL; 20 μL on Columbia blood agar, 37° C., 24 hours. As for the experimental part: In addition to determining the antimicrobial efficacy of the compound, an initial test was performed to determine its hemolytic nature. To do so, the compound was suspended in concentrations of 100 μg/mL, 50 μg/mL and 25 μg/mL. Twenty μL of each concentration was placed onto the surface of Columbia blood agar and incubated at 37° C. for 24 hours.

For series [6], the system named is P. aeruginosa ATCC 27853. The series is described as follows: MIC, CLSI M26-A microdilution (Example 2). It is filed as cell-based. As to conditions: Pseudomonas aeruginosa, ATCC27853, 10^5 to 10^2 cells/mL in 24 hours. As for the experimental part: (§3) The second test determined the minimum inhibitory concentration (MIC) of the compound against MRSA and P. aeruginosa ATCC 27853. […] This definition was consistent with the Clinical and Laboratory Standards Institute (CLSI). More specifically, the microdilution method as outlined in the M26-A CLSI guideline was used. All tests were performed with cation adjusted Mueller Hinton broth.
For orientation: Broth dilution looks for growth in wells or tubes with falling amounts of substance.

Series [7] relates to MRSA biofilm. The series is described as follows: MBEC assay (Calgary Biofilm Device), 100% eradication (Example 2). The settings on record: eradicate 100% of detectable biofilm, listed as PBC-51. It counts as cell-based, methicillin-resistant Staphylococcus aureus. As for the experimental part:
(§4) In addition to determining the MIC, the minimum biofilm eradication concentration (MBEC) of PBC-51 was also determined. The MBEC was determined using the MBEC assay, formerly known as the Calgary Biofilm Device, developed by Innovotech. In this instance, the MBEC was defined as the amount of antimicrobial required to eradicate 100% of detectable biofilm after being grown in the MBEC device. To grow the biofilms within this device, 150 μL of solution containing a concentration of 10^5 cells/mL were inoculated into each well of a 96-well plate. A lid containing 96 pegs was placed onto the plate and incubated for 24 hours at 37° C. while being shaken at 110 rpm. Biofilms developed on the surface of the polystyrene pegs within the 96-well plate. After 24 hours, each peg contained between 10^5 and 10^6 cells in well-established biofilms. The lid with pegs was transferred to a 96-well plate that contained 200 μL of varying concentrations of the compound and was incubated at 37° C. for an additional 24 hours. The plate was then sonicated, and the biofilms quantified using a 10-fold dilution series to determine the MBEC.

Series [8] has as its system P. aeruginosa ATCC 27853 biofilm. The description is as above. It is filed as cell-based, Pseudomonas aeruginosa. As to conditions: eradicate 100% of detectable biofilm, listed as PBC-51. Here is the method:
as §4

In series [9] the test system is MRSA biofilm. Nature of the series: EBEC on PEEK membranes, 100% eradication (Example 2). It is filed as cell-based, methicillin-resistant Staphylococcus aureus. As to conditions: PEEK membrane, eradicate all detectable amounts (100%), listed as PBC-51. As for the experimental part:
as §2

Series [10] concerns MRSA. The series is described as follows: MIC, CLSI M26-A microdilution (Example 2). It is filed as cell-based, methicillin-resistant Staphylococcus aureus. As to conditions: Staphylococcus aureus, 10^5 to 10^2 cells/mL in 24 hours. Here is the method: as §3

On to `CC(C)(C)OC(=O)NCCCNCCCNCc1cc(CNCCCNCCCN)cc(CNCCCNCCCN)c1` [CZ-51], for which, in [1], the “concentration at which partial clearing was seen” value worked out at 25 µg/mL. The entries for the “concentration at which total clearing was seen” value in series [1] and in series [3] were 50 µg/mL and 10 µg/mL, respectively. For the same compound, the EBEC in series [2] was < 100 μg/mL and < 188.33 μM; in series [9] it was ~250 μg/mL and ~470.88 μM. Besides, the “biofilm separated from the PEEK membrane by 24 hours” value in series [4] was “all detectable amounts of biofilm had separated”. For the same compound, the “biofilms separated from the PEEK membrane by 4 hours” value in [4] is recorded as “approximately half”. In addition, the “time at which biofilms began to separate from the PEEK membranes” value in series [4] was not above 2 h. In addition, in [5], the hemolytic activity result is reported as “none of these concentrations displayed hemolytic activity”. For the same compound, the MIC in [6] is ~6 µg/mL and ~11.3 µM; in series [10], ~1 µg/mL and ~1.88 µM. The MBEC in series [7] was < 25 μg/mL and < 47 μM; in series [8] it was ~35 μg/mL and ~65.92 μM.
